Measurements reported in ChEMBL document CHEMBL1132590, “Aminopyridazines as acetylcholinesterase inhibitors” (J Med Chem, 1999).

Key:
Acetylcholinesterase [1] = target: T1, Acetylcholinesterase (Rattus norvegicus, UniProt P37136)
T1 sequence (P37136 whole entry): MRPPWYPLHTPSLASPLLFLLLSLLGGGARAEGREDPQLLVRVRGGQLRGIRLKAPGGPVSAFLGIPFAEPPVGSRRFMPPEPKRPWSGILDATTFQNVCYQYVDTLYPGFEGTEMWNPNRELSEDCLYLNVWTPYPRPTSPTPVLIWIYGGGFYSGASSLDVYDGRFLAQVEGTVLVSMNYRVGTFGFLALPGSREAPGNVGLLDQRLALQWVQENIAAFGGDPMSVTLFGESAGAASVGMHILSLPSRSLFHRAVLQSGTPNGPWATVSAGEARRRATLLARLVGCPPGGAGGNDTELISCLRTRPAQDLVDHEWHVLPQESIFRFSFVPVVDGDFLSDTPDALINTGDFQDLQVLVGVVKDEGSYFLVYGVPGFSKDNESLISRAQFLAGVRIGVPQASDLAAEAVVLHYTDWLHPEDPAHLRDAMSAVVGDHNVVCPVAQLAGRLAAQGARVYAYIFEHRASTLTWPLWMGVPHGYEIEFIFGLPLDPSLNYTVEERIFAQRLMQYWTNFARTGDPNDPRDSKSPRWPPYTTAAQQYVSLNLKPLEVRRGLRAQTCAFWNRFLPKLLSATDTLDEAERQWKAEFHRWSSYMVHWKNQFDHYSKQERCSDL
Description: In vitro inhibition of acetylcholinesterase in homogenized rat striatum.

Acetylcholinesterase [2] = target: Acetylcholinesterase (Torpedo californica, UniProt P04058)
Description: In vitro inhibition of Torpedo californica acetylcholinesterase.

Acetylcholinesterase [3] = target: Acetylcholinesterase (Homo sapiens, UniProt P22303); assay: Inhibitory concentration against acetylcholinesterase (AChE) from human erythrocytes
Cholinesterase = Cholinesterase (Homo sapiens, UniProt P06276); assay: Inhibitory concentration against Butyrylcholinesterase (BuChE) from human serum
[4] = Ratio of inhibitory activity of ocmpound towards acetylcholinesterase from human erythrocytes over butyrylcholinesterase from human serum

Chain of Acetylcholinesterase (Homo sapiens, UniProt P22303) (P22303 whole entry): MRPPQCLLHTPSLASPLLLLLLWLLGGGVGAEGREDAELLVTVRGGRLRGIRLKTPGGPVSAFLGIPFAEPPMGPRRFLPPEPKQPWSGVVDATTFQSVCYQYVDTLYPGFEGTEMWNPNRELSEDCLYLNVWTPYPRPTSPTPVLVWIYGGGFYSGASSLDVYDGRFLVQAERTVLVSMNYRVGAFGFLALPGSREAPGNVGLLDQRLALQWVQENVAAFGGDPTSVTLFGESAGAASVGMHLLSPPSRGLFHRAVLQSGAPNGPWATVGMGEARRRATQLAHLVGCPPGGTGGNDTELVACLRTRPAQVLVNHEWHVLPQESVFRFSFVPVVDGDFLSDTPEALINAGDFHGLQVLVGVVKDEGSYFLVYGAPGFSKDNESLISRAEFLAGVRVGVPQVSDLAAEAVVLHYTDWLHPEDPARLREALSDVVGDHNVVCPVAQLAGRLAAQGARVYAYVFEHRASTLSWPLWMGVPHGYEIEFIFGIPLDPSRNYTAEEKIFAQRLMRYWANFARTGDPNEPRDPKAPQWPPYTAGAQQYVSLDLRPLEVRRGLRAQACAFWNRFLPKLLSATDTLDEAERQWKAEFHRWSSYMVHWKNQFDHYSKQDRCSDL
Chain of Acetylcholinesterase (Torpedo californica, UniProt P04058) (P04058 whole entry): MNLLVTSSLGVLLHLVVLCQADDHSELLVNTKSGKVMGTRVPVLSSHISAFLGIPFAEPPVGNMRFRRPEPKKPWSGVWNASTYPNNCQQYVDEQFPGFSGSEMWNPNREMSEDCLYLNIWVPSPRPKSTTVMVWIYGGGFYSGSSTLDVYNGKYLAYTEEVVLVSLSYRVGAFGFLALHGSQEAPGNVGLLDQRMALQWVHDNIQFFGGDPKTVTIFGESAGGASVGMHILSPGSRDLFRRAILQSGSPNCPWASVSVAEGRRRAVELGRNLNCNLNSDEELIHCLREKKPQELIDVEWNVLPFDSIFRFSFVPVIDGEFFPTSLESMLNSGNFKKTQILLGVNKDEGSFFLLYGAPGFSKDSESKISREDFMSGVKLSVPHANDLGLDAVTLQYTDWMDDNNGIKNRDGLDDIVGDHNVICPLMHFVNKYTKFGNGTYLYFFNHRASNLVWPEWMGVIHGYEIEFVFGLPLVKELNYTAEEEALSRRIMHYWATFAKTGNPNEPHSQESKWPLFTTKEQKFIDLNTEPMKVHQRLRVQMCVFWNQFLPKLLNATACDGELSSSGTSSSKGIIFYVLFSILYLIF
Chain of Cholinesterase (P06276 whole entry): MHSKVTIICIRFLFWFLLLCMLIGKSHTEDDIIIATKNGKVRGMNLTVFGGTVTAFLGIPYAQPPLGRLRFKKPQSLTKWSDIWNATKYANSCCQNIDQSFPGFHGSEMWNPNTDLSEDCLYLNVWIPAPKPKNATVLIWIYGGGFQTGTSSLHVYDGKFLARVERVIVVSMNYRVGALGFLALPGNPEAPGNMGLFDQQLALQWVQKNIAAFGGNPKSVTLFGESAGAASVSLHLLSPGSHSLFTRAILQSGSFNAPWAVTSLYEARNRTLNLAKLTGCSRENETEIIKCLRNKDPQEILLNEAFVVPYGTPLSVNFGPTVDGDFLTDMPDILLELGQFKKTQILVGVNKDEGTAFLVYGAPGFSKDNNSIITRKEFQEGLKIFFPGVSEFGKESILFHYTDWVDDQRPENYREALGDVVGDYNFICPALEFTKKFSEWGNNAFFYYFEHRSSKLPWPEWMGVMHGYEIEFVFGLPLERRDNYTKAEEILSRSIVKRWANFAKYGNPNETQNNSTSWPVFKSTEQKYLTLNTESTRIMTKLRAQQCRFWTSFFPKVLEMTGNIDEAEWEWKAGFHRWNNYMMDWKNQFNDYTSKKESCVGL

| SMILES | IC50 (Acetylcholinesterase [1]) [µM] | IC50 (Acetylcholinesterase [2]) [µM] | also measured |
| --- | --- | --- | --- |
| FC(F)(F)c1cc(-c2ccccc2)nnc1NCCN1CCOCC1 | 740 |  |  |
| c1ccc(-c2ccc(NCCN3CCOCC3)nn2)cc1 | > 1000 | 800 |  |
| c1ccc(-c2nnc(NCCN3CCCCC3)s2)cc1 | 54 |  |  |
| Cc1cc(-c2ccccc2)nnc1NCCN1CCOCC1 | 85 |  |  |
| CN(CCCCNc1ccc(-c2ccccc2)nn1)Cc1ccccc1 |  | 11 |  |
| CCN1CCCC1CNc1ccc(-c2ccccc2)nn1 (configuration not stated) |  | 62 |  |
| CN(CCNc1ccc(-c2ccccc2)nn1)Cc1ccccc1 |  | 170 |  |
| c1ccc(-c2ccc(NCCCCCN3CCc4ccccc4C3)nn2)cc1 |  | 10 | IC50 (Acetylcholinesterase [3]): 47 µM; IC50 (Cholinesterase): 0.31 µM; Ratio [4]: 0.0066 |
| c1ccc(-c2ccc(NCCCCN3CCc4ccccc4C3)nn2)cc1 |  | 15 |  |
| OCc1cc(-c2ccccc2)nnc1NCCN1CCOCC1 | 440 |  |  |
| Cc1cc(-c2ccccc2)nnc1NCCN1CCCCC1 | 5.4 |  |  |
| c1ccc(-c2ncc(NCCN3CCCCC3)nn2)cc1 | 57 |  |  |
| CN(CCCCCNc1ccc(-c2ccccc2)nn1)Cc1ccccc1 |  | 0.74 | IC50 (Acetylcholinesterase [3]): 0.93 µM; IC50 (Cholinesterase): 0.34 µM; Ratio [4]: 0.36 |
| CN(CCCNc1ccc(-c2ccccc2)nn1)Cc1ccccc1 |  | 13 |  |
| Cc1cc(-c2ccc(Cl)cc2)nnc1NCCN1CCCCC1 | 1.3 |  |  |
| c1ccc(C2=NNC(NCCN3CCCCC3)=NC2)cc1 | 47 |  |  |

| SMILES | IC50 (Acetylcholinesterase [1]) [µM] | IC50 (Acetylcholinesterase [2]) [µM] | also measured |
| --- | --- | --- | --- |
| c1ccc(-c2ccc(NCCCN3CCOCC3)nn2)cc1 |  | 410 |  |
| c1ccc(-c2cnc(NCCN3CCCCC3)nn2)cc1 | 60 |  |  |
| c1ccc(-c2ccc(NCCN3CCCCC3)nn2)cc1 | 13 | 71 |  |
| c1ccc(-c2ccc(NCCN3CCCCC3)nc2)cc1 | 70 |  |  |
| c1ccc(-c2ccc(NCCCN3CCc4ccccc4C3)nn2)cc1 |  | 35 |  |
| c1ccc(CN2CCC(CNc3ccc(-c4ccccc4)nn3)CC2)cc1 |  | 5.6 |  |
| c1ccc(-c2cnc(NCCN3CCCCC3)nc2)cc1 | > 100 |  |  |
| Cc1cc(-c2ccc3c(c2)OCO3)nnc1NCCN1CCCCC1 | 1 |  |  |
| N#Cc1cc(-c2ccccc2)nnc1NCCN1CCOCC1 | > 100 |  |  |
| c1ccc(-c2ccc(NCCN3CCc4ccccc4C3)nn2)cc1 |  | 83 |  |
| c1ccc(-c2cc(-c3ccccc3)c(NCCN3CCOCC3)nn2)cc1 | 260 |  |  |
| c1ccc(CN2CCC(Nc3ccc(-c4ccccc4)nn3)CC2)cc1 |  | 65 |  |
| Cc1cc(-c2ccc(Cl)cc2)nnc1NCCN1CCOCC1 | 34 |  |  |
| c1ccc(CN2CCC(CCNc3ccc(-c4ccccc4)nn3)CC2)cc1 |  | 0.12 | IC50 (Acetylcholinesterase [3]): 0.14 µM; IC50 (Cholinesterase): 0.7 µM; Ratio [4]: 5 |
| Nc1cc(-c2ccccc2)nnc1NCCN1CCOCC1 | 270 |  |  |
